# Measured values: patent US11844794B2, “Pharmaceutical compositions” (ADEPTIO PHARMACEUTICALS LIMITED, priority 2017, dated 2023)
# How the values were obtained:
# [1] = thermal gravimetric analysis (TGA) / thermal stability
# Protocol: Differential scanning calorimetry (DSC) was carried out on the sample “as is” using a Mettler DSC1 instrument. The sample was weighed I an aluminium pan, covered with a pierced lid, and then crimped and analysed from 30-300° C. at 10° C./minute.
# Thermal gravimetric analysis was performed on the sample “as is” using a Mettler 851^e TGA instrument. The sample was weighed in an alumina crucible and analysed from 30-300° C. at 10° C./minute.
# [2] = solid form stability in slurry / polymorphism by XRPD; format: physicochemical
# [3] = pharmacokinetics after oral administration to male Beagle dogs; format: in vivo, Beagle dog
# Protocol: Doses were administered orally, via gavage, at a dose volume of 2.00 mL/kg yielding the target dose level of 1.50 mg/kg. Following dosing, 10 mL of tap water was flushed down the gavage to ensure the entire dose was dispensed. Following dosing over four sessions each with one of the test materials, serial whole blood samples (circa. 1.3 mL) were collected from a jugular vein then placed into K2 EDTA treated tubes pre-dose and then 0.25, 0.50, 1, 2, 3, 4, 6, 12 and 24 hours post dose. Blood samples were placed immediately on a cool-block before being centrifuged within 15 minutes at 3,000×g, 10 minutes, 4° C. and resultant plasma drawn off. […] Doses were administered orally, via gavage, at a dose volume of 2.00 mL/kg yielding the target dose level of 1.50 mg/kg. Following dosing, 10 mL of tap water was flushed down the gavage to ensure the entire dose was dispensed. Following dosing over four sessions each with one of the test materials, serial whole blood samples (circa. 1.3 mL) were collected from a jugular vein then placed into K2 EDTA treated tubes pre-dose and then 0.25, 0.50, 1, 2, 3, 4, 6, 12 and 24 hours post dose. Blood samples were placed immediately on a cool-block before being centrifuged within 15 minutes at 3,000×g, 10 minutes, 4° C. and resultant plasma drawn off.
# [4] = equilibrium aqueous solubility by HPLC; format: physicochemical; details: water, thermodynamic from solid
# Protocol: The aqueous solubilities of salts were measured by an equilibrium method in which an amount of the salt was weighed into a 2 ml vial equipped with a magnetic stirrer bar and water added. In cases where complete dissolution was observed, more material was added until the sample was exhausted. The slurry was then stirred for seven days before isolating the solids by centrifuge-filtration. The solids were analysed by XRPD and the filtrates were analysed by HPLC to determine the amount of (+)-alpha-dihydrotetrabenazine salt in solution. The solubilities were calculated against a calibration curve established for a (+)-alpha-dihydrotetrabenazine sample of known concentration.
# [5] = moisture-sorption analysis; format: physicochemical; details: for moisture uptake: 25° C.
# Protocol: Moisture-sorption analysis was carried out using a Hiden IGA Sorp moisture-sorption analyser. […] The sample was then subjected to an isothermal (at 25° C.) adsorption scan from 40 to 90% relative humidity in steps of 10%. The sample was allowed to equilibrate to an asymptotic weight at each point for a maximum of four hours. […] An adsorption scan was then performed from 0 to 40% relative humidity inn steps of 10%. The sample was dried for two hours at 60° C. and 0% relative humidity, and the resulting solid was analysed by XRPD.
# [6] = male, Beagle (HsdRcc:DOBE), dog, plasma, po, 1.5 mg/kg, Plasma concentration of (+)-α-dihydrotetrabenazine, Male 1, oral 1.50 mg/kg (freebase equivalent)
# [7] = male, Beagle (HsdRcc:DOBE), dog, plasma, po, 1.5 mg/kg, Plasma concentration of (+)-α-dihydrotetrabenazine, Male 2, oral 1.50 mg/kg (freebase equivalent)
# [8] = male, Beagle (HsdRcc:DOBE), dog, plasma, po, 1.5 mg/kg, Plasma concentration of (+)-α-dihydrotetrabenazine, Male 3, oral 1.50 mg/kg (freebase equivalent)
# [9] = male, Beagle (HsdRcc:DOBE), dog, plasma, po, 1.5 mg/kg, Plasma concentration of (+)-α-dihydrotetrabenazine, Mean of 3 dogs, oral 1.50 mg/kg (freebase equivalent)
# [10] = male, Beagle (HsdRcc:DOBE), dog, plasma, po, 1.5 mg/kg, Plasma concentration of (+)-α-dihydrotetrabenazine, Mean of 3 dogs, oral 1.50 mg/kg (freebase equivalent), BLQ treated as zero
smiles,measurement,setting,value
COc1cc2c(cc1OC)[C@H]1C[C@@H](O)[C@H](CC(C)C)CN1CC2.O=C(O)CCC(=O)O [(+)-α-dihydrotetrabenazine succinate],TGA weight loss,[1]; below 150° C.,No weight loss
same,thermal stability,[1]; from DSC and TGA,good thermal stability
same,polymorphism,[2],no evidence of polymorphism
same,time post dose at which Cmax was observed,"[3]; dog, in vivo, po, 1.5 mg/kg",0.33 h
same,mean exposure,"[3]; male Beagle dogs, oral 1.50 mg/kg (freebase equivalent)",71.8782 ng·mL·h
same,concentration at 0.25 h,[3]; [6],66.7 ng/mL
same,concentration at 0.5 h,[3]; [6],47.6 ng/mL
same,concentration at 1 h,[3]; [6],23.4 ng/mL
same,concentration at 2 h,[3]; [6],7.04 ng/mL
same,concentration at 3 h,[3]; [6],2.48 ng/mL
same,concentration at 4 h,[3]; [6],1.03 ng/mL
same,concentration at 6 h,[3]; [6],0.304 ng/mL
same,concentration at 0.5 h,[3]; [7],32.4 ng/mL
same,concentration at 1 h,[3]; [7],14.8 ng/mL
same,concentration at 2 h,[3]; [7],3.65 ng/mL
same,concentration at 3 h,[3]; [7],1.23 ng/mL
same,concentration at 4 h,[3]; [7],0.531 ng/mL
same,concentration at 0.5 h,[3]; [8],83.1 ng/mL
same,concentration at 1 h,[3]; [8],49.2 ng/mL
same,concentration at 2 h,[3]; [8],21.7 ng/mL
same,concentration at 3 h,[3]; [8],10.6 ng/mL
same,concentration at 4 h,[3]; [8],6.21 ng/mL
same,concentration at 6 h,[3]; [8],1.68 ng/mL
same,concentration at 12 h,[3]; [8],0.212 ng/mL
same,concentration at 0 h,"[3]; male, Beagle (HsdRcc:DOBE), dog, plasma, po, 1.5 mg/kg, Plasma concentration of (+)-α-dihydrotetrabenazine, Mean of 3 dogs, oral 1.50 mg/kg (freebase equivalent), 0 h (pre-dose), BLQ treated as zero",0 ng/mL
same,concentration at 0.25 h,[3]; [9],46 ng/mL
same,concentration at 0.5 h,[3]; [9],54.4 ng/mL
same,concentration at 1 h,[3]; [9],29.1 ng/mL
same,concentration at 2 h,[3]; [9],10.8 ng/mL
same,concentration at 3 h,[3]; [9],4.77 ng/mL
same,concentration at 4 h,[3]; [9],2.59 ng/mL
same,concentration at 6 h,[3]; [10],0.66 ng/mL
same,concentration at 12 h,[3]; [10],0.07 ng/mL
same,concentration at 24 h,"[3]; male, Beagle (HsdRcc:DOBE), dog, plasma, po, 1.5 mg/kg, Plasma concentration of (+)-α-dihydrotetrabenazine, Mean of 3 dogs, oral 1.50 mg/kg (freebase equivalent), 24 h, BLQ treated as zero",0 ng/mL
same,Cmax,"[3]; male, Beagle, dog, in vivo, po, 1.5 mg/kg",64.3 ng/mL
same,solubility thermodynamic at 7 days,[4],> 350 mg/mL
same,moisture uptake,[5]; 60% relative humidity,0.6 weight %
same,moisture uptake,[5]; 90% relative humidity,1.3 weight %
same,XRPD pattern after moisture sorption studies,[5]; dried at 60° C. and 0% relative humidity,No change
same,hygroscopicity,[5]; gravimetric moisture-sorption,slightly hygroscopic
